# From EP0066456B1, “N-substituted azaheterocyclic carboxylic acids and their esters” (SMITHKLINE BECKMAN CORPORATION, priority 1981, dated 1982)
# System: contralateral rotation in rats induced by unilateral injection of GABA into the pars reticulata of the substantia nigra
# Experiment: potentiation of GABA-induced contralateral rotation in rats (unilateral GABA injection into pars reticulata of substantia nigra)
# Assay type: in vivo
# Settings: systemic administration, doses from 2.5 to 40.0 mg/kg, I.P.
# Method: Compounds active in the in vitro test described above are tested by systemic administration for their ability to penetrate the central nervous system and potentiate the rotation induced by GABA.
smiles,measurement,value
"Cl.O=C(O)C1CCCN(CCC=C(c2ccccc2)c2ccccc2)C1 (stereo not shown) [1 - (4,4 - diphenyl - 3 - butenyl) - 3 - piperidinecarboxylic acid hydrochloride]",potentiation of contralateral rotation induced by GABA,significantly active
